Entries after “also recorded” stand apart in the source; their conditions may differ. Where two headings read alike, the source gives them in different places.
Experiments:
[1] = tested on: MES-SA; assay: MTT cell viability assay, MES-SA; assay type: cell-based, human; conditions: MTT; for IC50: Homo sapiens, MES-SA, 72 h, parental non-resistant, read-out: IC50 (µM) in Cultured Cells MES-SA
Source text: (§1) Cell lines used for cytotoxicity assays included MCF-7 (human breast adenocarcinoma), A549 (human lung adenocarcinoma), K562 (human chronic myelogenous leukemia) and HEK-293 (human embryonic kidney) cells and were obtained from the Iranian Biological Resource Center, Tehran, Iran. MES-SA-DX5 multidrug resistant human uterine sarcoma, over-expressing P-gp and their parental non-resistant MES-SA cell lines were purchased from Sigma-Aldrich (St. Louis, MO, USA). All cells, except for HEK-293, were cultured in RPMI 1640 supplemented with 10% FBS and 100 units/mL penicillin-streptomycin at 37 °C in humidified air containing 5% CO2. HEK-293 cells were maintained in DMEM-F12 medium containing L-glutamine 2 mM supplemented with FBS and penicillin-streptomycin. MES-SA-DX5 cells were maintained in media containing 100 nM doxorubicin in order to ensure that only drug-resistant cells continue to grow.
(§2) Cytotoxicity of the test compounds were evaluated by MTT assay. In this method, reduction of MTT, a yellow tetrazolium salt to the purple formazan, by cellular dehydrogenase enzymes is determined as an index of cell viability. Cancer cells were seeded into 96-well plates (3–5 × 10^3 cells/well) and incubated for 24 h at 37 °C. Afterwards, four different concentrations of synthesized derivatives were added in triplicate and the cells were incubated at 37 °C for another 72 h, after which the media was replaced with MTT solution at a concentration of 0.5 mg/mL was added for MTT assay. After another 4h, formazan crystals were dissolved in 200 μL DMSO for 90 min and absorbance was measured at a wavelength of 570 nm with background correction at 650 nm using a microplate reader (model 680, Bio-Rad, Hercules, CA, USA) and IC50 for each compound was calculated with CurveExpert version 1.34 for Windows.

[2] = tested on: HEK-293; assay: MTT cell viability assay, HEK-293; assay type: cell-based, human; conditions: non-cancerous, read-out: IC50 (µM) in Cultured Cells HEK-293
Source text: as §1, §2

[3] = tested on: MES-SA-DX5; assay: MTT cell viability assay, MES-SA-DX5; assay type: cell-based, human; conditions: Homo sapiens, MES-SA/Dx5, 72 h, multidrug resistant, P-gp overexpressing, read-out: IC50 (µM) in Cultured Cells MES-SA-DX5
Source text: as §1, §2

[4] = tested on: K562; assay: MTT cell viability assay, K562; assay type: cell-based, human; conditions: Homo sapiens, K562, 72 h, read-out: IC50 (µM) in Cultured Cells K562
Source text: as §1, §2

[5] = tested on: MES-SA-DX5 cells; assay: Cell cycle analysis by propidium iodide (PI)-RNase flow cytometry; assay type: cell-based, human; design: Sub G1: unit not given here; conditions: 24 h
Method: The analysis of cells in different phases of cell cycle and sub-G1 was performed using propidium iodide (PI)-RNase assay by flow cytometry. MES-SA-DX5 cells were seeded in 12-well plates (1 × 10^6 cells/well) and treated with different concentrations of synthesized compounds for 24 h. The cells were then collected, washed with PBS, and fixed with 70% ethanol overnight at –20 °C. After at least 24 h, fixed cells were washed with PBS and subsequently stained with a DNA staining solution containing PI 20 μg/mL and RNase 200 μg/mL at room temperature for 30 min in the dark. Twenty thousand cells of each sample were analyzed using a BD FACSCalibur flow cytometer (BD Biosciences, USA) and the amount of the cells in sub-G1, G0/G1, S, and G2/M phases were estimated using CellQuest (Becton Dickinson, San Jose, CA, USA) software.
Therefore, it could be concluded that these compounds cause cytotoxicity in drug resistant MES-SA-DX5 cells by induction of apoptosis in these cells.
Figure 3 Effect of synthesized derivatives on cell cycle alterations in MES-SA-DX5 drug resistant cells. The cells in different phases of cell cycle were monitored using propidium iodide (PI)-RNase assay by flow cytometry. MES-SA-DX5 cells were seeded in 12-well plates (1 × 10^6 cells/well) and treated with different concentrations of synthesized compounds for 24 h. The cells were then collected, washed with PBS and fixed with 70% ethanol overnight at –20 °C. After at least 24 h, fixed cells were washed with PBS and subsequently stained with a DNA staining solution containing PI 20 μg/mL and RNase 200 μg/mL at room temperature for 30 min in the dark. Twenty thousand cells of each sample were analyzed using a FACS Calibur flow cytometer (BD Biosciences, USA). Representative histograms of cells treated with synthesized compounds are shown. An increase in sub-G1 phase cells could be observed after treatment with A1, A2, B1, and B2 compounds.

[6] = tested on: A-549; assay: MTT cell viability assay, A-549; assay type: cell-based, human; conditions: Homo sapiens, A549, 72 h, read-out: IC50 (µM) in Cultured Cells A-549
Source text: as §1, §2

[7] = tested on: MCF-7; assay: MTT cell viability assay, MCF-7; assay type: cell-based, human; conditions: Homo sapiens, MCF7, 72 h, read-out: IC50 (µM) in Cultured Cells MCF-7
Source text: as §1, §2

[8] = molecular target: T1, P-gp (Homo sapiens, UniProt P08183); assay: MDR reversal assay: flow cytometric detection of Rhodamine123 efflux/accumulation in MES-SA-DX5 cells; assay type: cell-based; conditions: compounds at 5, 10 and 25 µM, 5 µM Rh123
T1 construct: MES-SA-DX5 is a resistant cell line, which overexpresses P-gp as a result of constant exposure to doxorubicin; host or cells: MES-SA-DX5 human uterine sarcoma cells
Method: Rhodamine 123 (Rh123) is a well-known substrate of P-gp and it is readily pumped out of the cells by this ABC transporter. The amount of retained Rh123 in the cells indicates the efflux function of the target transporter. Flow cytometric analysis was used for assessment of intracellular Rh123 as previously described.
Briefly, a suspension of the multidrug resistant uterine sarcoma MES-SA-DX5 cells at a density of 5 × 10^5 cells/mL in growth medium was prepared. Four-hundred microliters (400 µL) of the synthesized compounds with final concentration of 5, 10, and 25 µM were added to 500 µL of the cell suspension. Verapamil was also tested as a positive control. After an incubation of 20 min, 50 µL of Rh123 at a final concentration of 5 µM was added and incubated for further 30 min at 37 °C. The cells were then centrifuged and washed twice with ice-cold PBS, and then resuspended in PBS and kept on ice. Rh123 accumulated in cells was then quantified by a FACSCalibur flow cytometer (Becton Dickinson, San Jose, CA, USA) with excitation and emission wavelengths of 488 and 530 nm, respectively. Geometric means of fluorescence intensity values were determined using Flowing Software (http://flowingsoftware.btk.fi/).
Accumulation of Rhodamine123 (Rh123), caused by inhibition of P-gp-mediated efflux, was determined by flow cytometry in the multidrug resistant uterine sarcoma MES-SA-DX5 cell line. Verapamil was used as a positive control. MES-SA-DX5 is a resistant cell line, which overexpresses P-gp as a result of constant exposure to doxorubicin. Alterations in the amount of the fluorescent Rh123 retained inside the MES-SA-DX5 cells can be plausibly related to the inhibition of the activity of P-gp efflux pump in the cells (Figure 1). The ratio of the geometric mean value of cells treated with synthesized compounds to the geometric mean value of the control untreated cells are show in Figure 2.
Figure 2 MDR reversal assessed by flow cytometric detection of Rhodamine123 efflux in MES-SA-DX5 cells. Cells were suspended in RPMI 1640 and treated with verapamil (Ver, positive control) or synthesized derivatives. After incubation for 20 min, 5 μM Rh123 was added, the cells were incubated for another […] at 37 °C and then centrifuged and washed twice with ice-cold PBS and resuspended in PBS. The fluorescence caused by the presence of Rh123 in cells was measured using a flow cytometer with excitation and emission wavelengths of 488 nm and 530 nm, respectively. The values represent the mean ± S.E.M. of 3–5 experiments. * The difference between treated and controlled cells are statistically significant (p ˂ 0.05).

T1 sequence (P08183 whole entry): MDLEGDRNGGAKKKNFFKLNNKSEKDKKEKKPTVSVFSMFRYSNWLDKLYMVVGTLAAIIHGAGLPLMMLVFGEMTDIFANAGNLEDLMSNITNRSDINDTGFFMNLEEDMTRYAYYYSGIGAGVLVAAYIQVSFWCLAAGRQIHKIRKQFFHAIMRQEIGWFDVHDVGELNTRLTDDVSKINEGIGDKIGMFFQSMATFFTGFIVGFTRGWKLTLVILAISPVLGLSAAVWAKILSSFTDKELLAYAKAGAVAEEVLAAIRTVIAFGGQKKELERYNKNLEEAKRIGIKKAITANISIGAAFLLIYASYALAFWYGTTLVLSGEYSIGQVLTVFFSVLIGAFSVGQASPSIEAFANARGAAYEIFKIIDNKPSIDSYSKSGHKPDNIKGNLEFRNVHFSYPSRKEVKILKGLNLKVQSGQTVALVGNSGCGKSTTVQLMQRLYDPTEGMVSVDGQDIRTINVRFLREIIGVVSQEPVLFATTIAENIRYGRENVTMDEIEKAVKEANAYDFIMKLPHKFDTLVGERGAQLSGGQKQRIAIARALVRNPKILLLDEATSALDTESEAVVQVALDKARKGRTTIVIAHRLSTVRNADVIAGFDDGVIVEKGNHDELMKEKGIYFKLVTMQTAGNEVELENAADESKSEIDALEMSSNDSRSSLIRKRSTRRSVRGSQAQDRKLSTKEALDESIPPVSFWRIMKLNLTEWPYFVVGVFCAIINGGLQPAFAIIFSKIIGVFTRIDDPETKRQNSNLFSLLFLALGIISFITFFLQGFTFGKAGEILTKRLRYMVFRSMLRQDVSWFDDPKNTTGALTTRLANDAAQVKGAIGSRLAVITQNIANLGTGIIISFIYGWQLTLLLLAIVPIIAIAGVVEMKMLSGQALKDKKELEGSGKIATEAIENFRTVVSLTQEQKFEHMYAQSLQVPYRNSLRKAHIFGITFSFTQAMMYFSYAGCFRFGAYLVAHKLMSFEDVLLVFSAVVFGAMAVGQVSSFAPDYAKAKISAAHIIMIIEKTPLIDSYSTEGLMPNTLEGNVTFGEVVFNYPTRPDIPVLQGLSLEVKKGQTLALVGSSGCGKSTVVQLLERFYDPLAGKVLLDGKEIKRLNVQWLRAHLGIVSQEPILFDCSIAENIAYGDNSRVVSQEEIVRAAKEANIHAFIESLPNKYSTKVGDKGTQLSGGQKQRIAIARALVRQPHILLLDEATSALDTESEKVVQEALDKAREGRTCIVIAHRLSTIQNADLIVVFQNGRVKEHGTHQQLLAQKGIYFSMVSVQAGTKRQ

Compound | IC50 [4] [µM] | melting point [°C] | IC50 [6] [µM] | IC50 [7] [µM] | IC50 [1] [µM] | IC50 ([2]; Homo sapiens, HEK293, 72 h) [µM] | IC50 [3] [µM] | G0/G1 ([5]; 10 µM) | G2/M ([5]; 10 µM) | S ([5]; 10 µM) | Sub G1 ([5]; 10 µM) | G0/G1 ([5]; 25 µM) | G2/M ([5]; 25 µM) | S ([5]; 25 µM) | Sub G1 ([5]; 25 µM) | S ([5]; 100 µM) | P-gp inhibitory activity (Rh123 accumulation) [8] | effect against parental non-resistant MES-SA cells [1] | G0/G1 ([5]; 100 µM) | G2/M ([5]; 100 µM) | other results
CC1=C(C(=O)Nc2csc(C)n2)C(c2ccc(Cl)cc2Cl)C2=C(CCCC2=O)N1 (stereo not shown) [Compound A1, 4-(2,4-Dichlorophenyl)-2-methyl-N-(2-methylthiazol-4-yl)-5-oxo-1,4,5,6,7,8-hexahydroquinoline-3-carboxamide] | 15 ± 0.5 | 195 | 48.8 ± 1.3 | 72.5 ± 11.9 | 64.1 ± 19.4 | 28.6 ± 4.3 | 40.1 ± 4.7 | 52.32 ± 1.8 | 25.12 ± 1.7 | 21.85 ± 1.0 | 0.61 ± 0.2 | 53.30 ± 0.9 | 25.01 ± 0.7 | 20.96 ± 1.2 | 0.71 ± 0.2 | 21.12 ± 1.6 | significantly blocked P-gp efflux; also recorded: highest P-gp inhibitory activities | – | – | – | –
CC1=C(C(=O)Nc2csc(C)n2)C(c2ccc(Br)cc2)C2=C(CCCC2=O)N1 (stereo not shown) [Compound A2, 4-(4-Bromophenyl)-2-methyl-N-(2-methylthiazol-4-yl)-5-oxo-1,4,5,6,7,8-hexahydroquinoline-3-carboxamide] | 31 ± 2.7 | 273 | 87.1 ± 6.7 | 56.7 ± 3.6 | > 100 | > 50 | 31.5 ± 1.5 | 56.45 ± 1.1 | 23.45 ± 0.2 | 18.90 ± 0.2 | 1.21 ± 0.7 | 59.47 ± 3.0 | 20.23 ± 0.7 | 18.53 ± 1.7 | 1.71 ± 1.1 | 19.27 ± 0.3 | significantly blocked P-gp efflux; also recorded: highest P-gp inhibitory activities | did not show any effect | 50.57 ± 2.8 | 18.37 ± 2.6 | IC50 ([2]; 72 h): 63.1 ± 7.4 µM
CC1=C(C(=O)Nc2csc(C)n2)C(c2cccc(Cl)c2)C2=C(CCCC2=O)N1 (stereo not shown) [Compound A3, 4-(3-Chlorophenyl)-2-methyl-N-(2-methylthiazol-4-yl)-5-oxo-1,4,5,6,7,8-hexahydroquinoline-3-carboxamide] | 56.4 ± 7 | 253 | > 100 | > 100 | > 100 | > 50 | 78 ± 4 | 50.35 ± 4.5 | 23.25 ± 1.6 | 18.23 ± 2.6 | 0.51 ± 0.1 | 56.18 ± 1.2 | 23.08 ± 1.0 | 19.70 ± 2.0 | 0.97 ± 0.2 | 13.31 ± 1.0 | – | – | 53.64 ± 1.4 | 29.46 ± 1.8 | IC50 ([2]; 72 h): 93.7 ± 11.9 µM

The next molecules have a lower IC50 [4] than those just listed; values first:

IC50 [4] [µM] | melting point [°C] | IC50 [6] [µM] | IC50 [7] [µM] | Compound | IC50 [1] [µM] | IC50 ([2]; Homo sapiens, HEK293, 72 h) [µM] | IC50 [3] [µM] | G0/G1 ([5]; 10 µM) | G2/M ([5]; 10 µM) | S ([5]; 10 µM) | Sub G1 ([5]; 10 µM) | G0/G1 ([5]; 25 µM) | G2/M ([5]; 25 µM) | S ([5]; 25 µM) | Sub G1 ([5]; 25 µM) | S ([5]; 100 µM) | P-gp inhibitory activity (Rh123 accumulation) [8] | effect against parental non-resistant MES-SA cells [1] | G0/G1 ([5]; 100 µM) | G2/M ([5]; 100 µM) | other results
6.7 ± 0.6 | 248 | 60 ± 3 | 47.1 ± 2.1 | Cc1nc(NC(=O)c2c(C)nc3c(c2-c2ccc(Cl)cc2Cl)C(=O)CCC3)cs1 [Compound B1, 4-(2,4-Dichlorophenyl)-2-methyl-N-(2-methylthiazol-4-yl)-5-oxo-5,6,7,8-tetrahydroquinoline-3-carboxamide] | 55.6 ± 2.4 | 39.9 ± 5.4 | 39.8 ± 1.6 | 49.10 ± 3.7 | 29.03 ± 2.1 | 21.27 ± 2.1 | 0.64 ± 0.1 | 51.13 ± 2.4 | 27.03 ± 0.6 | 20.90 ± 2.0 | 0.91 ± 0.0 | 25.17 ± 0.7 | significantly blocked P-gp efflux | – | – | – | –
10.1 ± 1.5 | 261 | 86.8 ± 5 | 77.7 ± 8.7 | Cc1nc(NC(=O)c2c(C)nc3c(c2-c2ccc(Br)cc2)C(=O)CCC3)cs1 [Compound B2, 4-(4-Bromophenyl)-2-methyl-N-(2-methylthiazol-4-yl)-5-oxo-5,6,7,8-tetrahydroquinoline-3-carboxamide] | > 100 | > 50 | 43.6 ± 2.8 | 53.00 ± 3.6 | 24.13 ± 2.4 | 21.80 ± 1.5 | 0.96 ± 0.1 | 55.83 ± 2.6 | 22.23 ± 1.4 | 20.30 ± 1.7 | 1.57 ± 0.4 | 19.48 ± 1.8 | significantly blocked P-gp efflux; also recorded: highest P-gp inhibitory activities | did not show any effect | 47.00 ± 0.6 | 29.27 ± 1.8 | –
